The text below walks through data of ChEMBL document CHEMBL1138566, “Synthesis of novel benzo[h]quinolines: wound healing, antibacterial, DNA binding and in vitro antioxidant activity” (Eur J Med Chem, 2009).

The test system of assay [1] is Rattus norvegicus. Description: Wound healing activity in Wistar albino rat dorsal back excision wound model assessed as epithelization period applied topically as cream base ointment over 100/500mm'2 scar. The assay is classed as functional.
Assay [2] deals with Rattus norvegicus. Description: Wound healing activity in Wistar albino rat dorsal back incision wound model assessed as tensile strength applied topically as cream base ointment over 100/500 mm'2 scar by tensiometry. The assay is classed as functional.
In assay [3] the test system is Rattus norvegicus. Description: Wound healing activity in Wistar albino rat dorsal back excision wound model assessed as wound closure applied topically as 1 %W/W gel base ointment measured after 4 days. The assay is classed as functional.
The test system of assay [4] is Rattus norvegicus. Description: Wound healing activity in Wistar albino rat dorsal back excision wound model assessed as wound closure applied topically as 1 %W/W gel base ointment measured after 8 days. The class given is functional.
In assay [5] the test system is Rattus norvegicus. Description: Wound healing activity in Wistar albino rat dorsal back excision wound model assessed as wound closure applied topically as 1 %W/W gel base ointment measured after 12 days. The assay is classed as functional, organism-based.
Assay [6] relates to Rattus norvegicus. Description: Wound healing activity in Wistar albino rat dorsal back excision wound model assessed as wound closure applied topically as 1 %W/W gel base ointment measured after 16 days. The class given is functional.
For assay [7], the system named is Rattus norvegicus. Description: Wound healing activity in Wistar albino rat dorsal back excision wound model assessed as wound closure applied topically as cream base ointment over 100/500 mm'2 scar measured after 4 days. The class given is functional.
Assay [8] deals with Rattus norvegicus. Description: Wound healing activity in Wistar albino rat dorsal back excision wound model assessed as wound closure applied topically as cream base ointment over 100/500 mm'2 scar measured after 8 days. The class given is functional.
Assay [9] concerns Rattus norvegicus. Description: Wound healing activity in Wistar albino rat dorsal back excision wound model assessed as wound closure applied topically as cream base ointment over 100/500 mm'2 scar measured after 12 days. The class given is functional.
For assay [10], the system named is Rattus norvegicus. Description: Wound healing activity in Wistar albino rat dorsal back excision wound model assessed as wound closure applied topically as cream base ointment over 100/500 mm'2 scar measured after 16 days. The assay is classed as functional.
The subject of assay [11] is Pseudomonas aeruginosa. Description: Antibacterial activity against Pseudomonas aeruginosa ATCC 20852 after 48 hrs by microdilution method. The class given is functional. The conditions noted are these: ATCC 20852, 48 h.
Assay [12] has as its system Klebsiella pneumoniae. Description: Antibacterial activity against Klebsiella pneumoniae MTCC 618 after 48 hrs by microdilution method. The assay is classed as functional. The following applies: MTCC 618, 48 h.
Assay [13] relates to Escherichia coli. Description: Antibacterial activity against Escherichia coli after 48 hrs by microdilution method. The assay is classed as functional.
Assay [14] has as its system Staphylococcus aureus. Description: Antibacterial activity against Staphylococcus aureus ATCC 29737 after 48 hrs by microdilution method. The class given is functional. The following applies: ATCC 29737, 48 h.
Assay [15] deals with Streptococcus pyogenes. Description: Antibacterial activity against Streptococcus pyogenes NCIM 2608 after 48 hrs by microdilution method. The class given is functional. The following applies: NCIM 2608, 48 h.
Assay [16] deals with Bacillus subtilis. Description: Antibacterial activity against Bacillus subtilis NCIM 2010 by microdilution method. The class given is functional.
In assay [17] the test system is Pseudomonas aeruginosa. Description: Antibacterial activity against Pseudomonas aeruginosa ATCC 20852 at 10 mg/ml after 48 hrs by agar well diffusion method. The assay is classed as functional. The following applies: ATCC 20852, 48 h, read-out: DIZ.
The subject of assay [18] is Klebsiella pneumoniae. Description: Antibacterial activity against Klebsiella pneumoniae MTCC 618 at 10 mg/ml after 48 hrs by agar well diffusion method. The conditions noted are these: MTCC 618, 48 h, read-out: DIZ. The class given is functional.
Assay [19] relates to Escherichia coli. Description: Antibacterial activity against Escherichia coli at 10 mg/ml after 48 hrs by agar well diffusion method. The class given is functional. The conditions noted are these: read-out: DIZ.
Assay [20] deals with Staphylococcus aureus. Description: Antibacterial activity against Staphylococcus aureus ATCC 29737 at 10 mg/ml after 48 hrs by agar well diffusion method. The following applies: ATCC 29737, 48 h, read-out: DIZ. The class given is functional.
Assay [21] concerns Streptococcus pyogenes. Description: Antibacterial activity against Streptococcus pyogenes NCIM 2608 at 10 mg/ml after 48 hrs by agar well diffusion method. The class given is functional. The conditions noted are these: NCIM 2608, 48 h, read-out: DIZ.
The test system of assay [22] is Bacillus subtilis. Description: Antibacterial activity against Bacillus subtilis NCIM 2010 at 10 mg/ml after 48 hrs by agar well diffusion method. The conditions noted are these: NCIM 2010, 48 h, read-out: DIZ. The class given is functional.
Assay [23] concerns Nucleic Acid. Description: Binding affinity to DNA assessed as reduction of Uv-vis spectra absorption at 293 nm wavelength at 0.5 uM by DNA intercalation assay. More on the design: scale not given: the % may be the effect or the level left. The class given is nucleic-acid assay.
Assay [24] deals with Nucleic Acid. Description: Intrinsic binding affinity to DNA assessed as hypochromism by absorption spectral analysis. The class given is nucleic-acid assay.
In assay [25] the test system is Calf thymus DNA. Description: Binding affinity to calf thymus DNA assessed as melting temperature. The class given is nucleic-acid assay. The following applies: Bos taurus.
Assay [26] deals with Calf thymus DNA. Description: Binding affinity to calf thymus DNA assessed as increase in viscosity at 100 uM. The assay is classed as nucleic-acid assay. The conditions noted are these: Bos taurus.
Assay [27] can be described thus: Antioxidant activity assessed as inhibition of phenazine methosulphate-NADH coupling reaction-induced superoxide anion production at 60 ug/ml. The assay is classed as functional. More on the design: scale not given: the % may be the effect or the level left.
The nature of assay [28]: Antioxidant activity assessed as hydrogen peroxide scavenging activity at 60 ug/ml by spectrophotometry. The assay is classed as functional.
For assay [29], the system named is Radical scavenging activity. Description: Antioxidant activity assessed as DPPH radical scavenging activity. The class given is functional.
The nature of assay [30]: Antioxidant activity assessed as increase in reducing power at 20 to 60 ug/mL. The assay is classed as functional.
Assay [31] relates to Rattus norvegicus. Description: Wound healing activity in Wistar albino rat dorsal back excision wound model applied topically as cream base ointment over 100/500 mm'2 scar measured after 18 days. The assay is classed as functional.
The subject of assay [32] is Rattus norvegicus. Description: Wound healing activity in Wistar albino rat dorsal back excision wound model applied topically as 1 %W/W gel base ointment measured after 18 days. The class given is functional.
Assay [33] has as its system Nucleic Acid. Description: Intrinsic binding affinity to DNA by absorption spectral analysis. The class given is nucleic-acid assay.
Assay [34] in a line: Antioxidant activity assessed as hydrogen peroxide scavenging activity by spectrophotometry. The class given is functional.
The subject of assay [35] is Nucleic Acid. Description: Binding affinity to DNA assessed as reduction of Uv-vis spectra absorption at 312 nm wavelength at 0.5 uM by DNA intercalation assay. The assay is classed as nucleic-acid assay. Also noted: scale not given: the % may be the effect or the level left.
For assay [36], the system named is Escherichia coli. Description: Antibacterial activity against Escherichia coli at 10 ug/ml after 48 hrs by agar well diffusion method. The following applies: read-out: DIZ.
Assay [37] concerns Pseudomonas aeruginosa. Description: microbe, parasite or virus in culture. The conditions noted are these: ATCC 20852, 48 h, read-out: DIZ.
Description: Antibacterial activity against Pseudomonas aeruginosa ATCC 20852 at 10 ug/ml after 48 hrs by agar well diffusion method
In assay [38] the test system is Klebsiella pneumoniae. Description: microbe, parasite or virus in culture. The following applies: MTCC 618, 48 h, read-out: DIZ.
Description: Antibacterial activity against Klebsiella pneumoniae MTCC 618 at 10 ug/ml after 48 hrs by agar well diffusion method
Assay [39] deals with Staphylococcus aureus. Description: microbe, parasite or virus in culture. The conditions noted are these: ATCC 29737, 48 h, read-out: DIZ.
Description: Antibacterial activity against Staphylococcus aureus ATCC 29737 at 10 ug/ml after 48 hrs by agar well diffusion method
Assay [40] concerns Streptococcus pyogenes. Description: microbe, parasite or virus in culture. The following applies: NCIM 2608, 48 h, read-out: DIZ.
Description: Antibacterial activity against Streptococcus pyogenes NCIM 2608 at 10 ug/ml after 48 hrs by agar well diffusion method
Assay [41] deals with Bacillus subtilis. Description: microbe, parasite or virus in culture. The following applies: NCIM 2010, 48 h, read-out: DIZ.
Description: Antibacterial activity against Bacillus subtilis NCIM 2010 at 10 ug/ml after 48 hrs by agar well diffusion method

Values after ≈ are worked out from the molar mass of the structure shown. Active and inactive are the calls of the source. The calls are words filed in the database; no cut-off is given here.

For `NC(=O)N/N=C/c1ccc([N+](=O)[O-])o1` [NITROFURAZONE], the Activity in the assay with Rattus norvegicus [1] was 14 days; with Rattus norvegicus [2] it was 599 g; in the assay on Rattus norvegicus [3], 55.68%; in the assay on Rattus norvegicus [4] it was 87.21%; in the assay on Rattus norvegicus [5] it was 97.68%; with Rattus norvegicus [6], 100%.
Take `O=Cc1cc2ccc3ccccc3c2nc1S`: the Activity in the assay with Rattus norvegicus [7] is 45.35%; in the assay with Rattus norvegicus [8], 75.63%; with Rattus norvegicus [9], 85.94%; in the assay with Rattus norvegicus [10], 96.24%; in the assay with Rattus norvegicus [1], 18 days; in the assay on Rattus norvegicus [2], 544.83 g. Further, the Activity in the assay with Nucleic Acid [23] came to 20.3%; in the assay with Nucleic Acid [24], 20.5%; in assay [27], 65%; in assay [28] it was 68%; in [29] it was 55%; in the assay on Rattus norvegicus [31], 100%. Moreover, the Activity in the assay with Rattus norvegicus [32] is 95.71%; in [34], “Dose-dependent effect”. Also, the MIC in the assay on Pseudomonas aeruginosa [11] was 16 µg/mL (≈ 66.9 µM); in the assay on Klebsiella pneumoniae [12], 12.5 µg/mL (≈ 52.2 µM); with Escherichia coli [13], 32 µg/mL (≈ 134 µM); with Staphylococcus aureus [14], 11 µg/mL (≈ 46 µM); in the assay with Streptococcus pyogenes [15], 12.5 µg/mL (≈ 52.2 µM); with Bacillus subtilis [16], 16.2 µg/mL (≈ 67.9 µM). The zone of inhibition at 10000 µg/mL in the assay with Pseudomonas aeruginosa [17] stood at 11.6 mm; in the assay with Klebsiella pneumoniae [18] it was 13.6 mm; in the assay with Escherichia coli [19], 12.3 mm; in the assay with Staphylococcus aureus [20], 19.4 mm; in the assay on Streptococcus pyogenes [21], 17.4 mm; with Bacillus subtilis [22], 15.2 mm. Moreover, in the assay on Calf thymus DNA [25], the Tm was found to be 60 °C. For the same molecule, the outcome (with Calf thymus DNA [26]; in assay [30]) was Active. The molecule further showed a Kb in the assay on Nucleic Acid [33] of 2.7 ×10⁵ /M.
Take `Cc1cc(C(C)(C)C)c(O)c(C(C)(C)C)c1`: the Activity was determined as 51% in assay [27] and 48% in assay [29]. For the same molecule, in assay [28], the result was Active.
Turning to `O=Cc1cc2ccc3ccccc3c2nc1[SeH]`, the Activity in the assay with Rattus norvegicus [7] was 53.65%; in the assay with Rattus norvegicus [8], 85.26%; with Rattus norvegicus [9], 95.7%; in the assay with Rattus norvegicus [10], 100%; in the assay with Rattus norvegicus [1] it was 16 days; in the assay with Rattus norvegicus [2], 582.33 g. The Activity in the assay on Nucleic Acid [35] is 18.2%; in the assay with Nucleic Acid [24], 25.1%; in assay [27], 76%; in [28], 74%; in assay [29], 61%; in assay [34], “Dose-dependent effect”. Moreover, the MIC was 16 µg/mL (≈ 55.9 µM) in the assay on Pseudomonas aeruginosa [11]; 25 µg/mL (≈ 87.4 µM) against Klebsiella pneumoniae [12]; 25 µg/mL (≈ 87.4 µM) against Escherichia coli [13]; 8 µg/mL (≈ 28 µM) against Staphylococcus aureus [14]; 12.5 µg/mL (≈ 43.7 µM) against Streptococcus pyogenes [15]; 16.2 µg/mL (≈ 56.8 µM) against Bacillus subtilis [16]. The zone of inhibition at 10000 µg/mL with Pseudomonas aeruginosa [17] stood at 12.2 mm; in the assay on Klebsiella pneumoniae [18] it was 14.5 mm; in the assay with Escherichia coli [19], 17.2 mm; in the assay with Staphylococcus aureus [20], 22.8 mm; with Streptococcus pyogenes [21] it was 19.5 mm; in the assay on Bacillus subtilis [22], 20.6 mm. Besides, the Tm with Calf thymus DNA [25] is 58 °C. Also, the outcome (in the assay on Calf thymus DNA [26]; in assay [30]) was Active. Also, in the assay with Nucleic Acid [33], the Kb is 3.8 ×10⁶ /M.
For the molecule `COc1ccc(O)c(C(C)(C)C)c1.COc1ccc(O)cc1C(C)(C)C`, the Activity in [27] was 81%; in assay [29] it was 64%. Also, the outcome in assay [28] was Active.
As to `O=C(O)c1cn(C2CC2)c2cc(N3CCNCC3)c(F)cc2c1=O` [CIPROFLOXACIN], the minimum inhibitory concentration (MIC) came out at 12.5 µg/mL (≈ 37.7 µM) against Klebsiella pneumoniae [12]; 6.5 µg/mL (≈ 19.6 µM) in the assay on Escherichia coli [13]; 6.75 µg/mL (≈ 20.4 µM) in the assay on Staphylococcus aureus [14]; 6.25 µg/mL (≈ 18.9 µM) in the assay on Streptococcus pyogenes [15]; 12.5 µg/mL (≈ 37.7 µM) in the assay with Bacillus subtilis [16]. The zone of inhibition at 10 µg/mL with Escherichia coli [36] amounted to 19.2 mm; in the assay with Pseudomonas aeruginosa [37] it was 23.3 mm; in the assay with Klebsiella pneumoniae [38], 20.1 mm; in the assay on Staphylococcus aureus [39], 21.4 mm; in the assay on Streptococcus pyogenes [40] it was 20.8 mm; in the assay on Bacillus subtilis [41], 21.3 mm.
